ChEMBL document CHEMBL5321205, “Development and therapeutic potential of adaptor-associated kinase 1 inhibitors in human multifaceted diseases” (Eur J Med Chem, 2023)
pIC50, pKd: −log10 of the molar value. Blank lines part the entries; values can stand above or below the compound they belong to.

Tests used:
[1] = target: T1, AP2-associated protein kinase 1 (Homo sapiens, UniProt Q2M2I8); assay: Inhibition of GST-tagged recombinant AAK1 (unknown origin) using AP2M1 peptide as substrate by ADP-Glo kinase assay
[2] = target: T1, AP2-associated protein kinase 1; assay: Binding affinity of AAK1 (unknown origin) assessed as dissociation constant
[3] = target: T1, AP2-associated protein kinase 1; assay: Inhibition of AAK1 (unknown origin)
[4] = Oral bioavailability in mouse at 10 mg/kg measured upto 24 hrs; assay type: ADME, organism-based; conditions: in vivo
[5] = Half life in mouse at 10 mg/kg, po or 1 mg/kg, iv measured upto 24 hrs; assay type: ADME, organism-based; conditions: in vivo
[6] = target: T1, AP2-associated protein kinase 1; assay: Inhibition of AAK1 expressed in human […] cells; assay type: cell-based, HEK293F
[7] = target: T1, AP2-associated protein kinase 1; assay: Inhibition of GST-Xa-tagged recombinant human AAK1 using (5-FAM)-Aha-KEEQSQITSQVTGQIGWR-NH2 as substrate assessed as reduction in AP2M1 phosphorylation incubated for 3 hrs in presence of ATP by fluorescence based assay

T1 sequence (Q2M2I8 whole entry): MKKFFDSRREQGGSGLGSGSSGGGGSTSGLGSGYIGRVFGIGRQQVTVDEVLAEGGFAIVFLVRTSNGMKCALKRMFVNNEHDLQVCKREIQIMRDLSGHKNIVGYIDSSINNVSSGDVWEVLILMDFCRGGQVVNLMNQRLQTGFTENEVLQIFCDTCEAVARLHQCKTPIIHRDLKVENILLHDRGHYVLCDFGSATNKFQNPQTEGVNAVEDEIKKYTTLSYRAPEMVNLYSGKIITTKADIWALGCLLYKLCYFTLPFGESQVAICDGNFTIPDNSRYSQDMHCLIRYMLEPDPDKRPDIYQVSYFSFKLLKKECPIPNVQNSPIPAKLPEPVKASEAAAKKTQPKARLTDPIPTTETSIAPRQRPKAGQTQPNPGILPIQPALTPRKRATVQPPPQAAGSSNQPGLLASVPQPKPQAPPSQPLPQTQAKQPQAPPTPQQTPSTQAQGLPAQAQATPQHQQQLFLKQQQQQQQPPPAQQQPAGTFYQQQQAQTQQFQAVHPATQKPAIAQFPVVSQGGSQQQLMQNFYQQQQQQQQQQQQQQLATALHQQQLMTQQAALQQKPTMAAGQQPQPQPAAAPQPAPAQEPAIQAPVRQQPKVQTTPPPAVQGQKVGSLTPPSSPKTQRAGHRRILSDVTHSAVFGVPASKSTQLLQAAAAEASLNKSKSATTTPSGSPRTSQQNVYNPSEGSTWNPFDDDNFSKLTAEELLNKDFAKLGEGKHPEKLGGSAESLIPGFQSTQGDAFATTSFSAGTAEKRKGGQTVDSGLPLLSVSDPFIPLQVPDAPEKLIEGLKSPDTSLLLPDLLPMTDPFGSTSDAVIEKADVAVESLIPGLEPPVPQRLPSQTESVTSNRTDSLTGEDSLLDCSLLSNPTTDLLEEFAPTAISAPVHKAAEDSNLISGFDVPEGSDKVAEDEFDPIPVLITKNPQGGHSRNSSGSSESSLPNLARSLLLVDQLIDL

SMILES: COC(=O)[C@@]1(O)C[C@@H]2O[C@]1(C)n1c3ccccc3c3c4c(c5c6ccccc6n2c5c31)C(=O)NC4
pIC50 [1]: > 8.00

SMILES: COC(=O)[C@@]1(O)[C@@H](C)[C@H]2O[C@]1(C)n1c3ccccc3c3c4c(c5c6ccccc6n2c5c31)C(=O)NC4
pIC50 [1]: > 7.52

SMILES: COc1ncccc1-c1cnn2ccc(N3CCN(C(=O)OC(C)C)CC3)nc12
bioavailability [4]: 100%
half-life [5]: 3.6 h

SMILES: COC(=O)c1ccc2c(c1)NC(=O)C2C(Nc1ccc(N(C)C(=O)CN2CCN(C)CC2)cc1)c1ccccc1 (stereo unspecified)
pKd [2]: 5.97

Second part, the compound after the results:

pKd [2]: 9.00
pIC50 [3]: > 8.00
SMILES: COc1ncccc1-c1cnc2ccc(N3CC[C@@H](N(C)C(=O)OC(C)C)C3)nn12

pKd [2]: 9.00
pIC50 [3]: > 8.00
SMILES: COc1ncccc1-c1cnc2ccc(N3CC[C@@H](N(C)C(=O)OC(C)(C)C)C3)nn12

pIC50 [6]: 8.54
SMILES: CC(C)C[C@](C)(N)COc1ccc(-c2ccncc2)cc1C(F)(F)F

pIC50 [7]: 8.55
SMILES: [3H]CC([3H])(C[3H])C([3H])[C@H](N)COc1ccc2c(c1)[nH]c(=O)c1cnccc12 (stereo partly specified)
